Results as given in patent US20260139017A1, “COMPOSITIONS AND METHODS USING REELIN IN ALZHEIMER'S DISEASE” (The General Hospital Corporation, priority 2022, published 2026).
Entries after “also recorded” stand apart in the source; their conditions may differ.

What was measured:
pDAB1 (Tyr232) = experiment: HRECs treated 5 minutes with HEK 293T-derived mini-RELN media, pDAB1 western blot; assay type: cell-based, human; conditions: HEK 293T-derived media 1:1, 1:4, 1:14, 5 minutes
Experimental: The effect of in vitro treatment with RELN or miniRELN protein was also evaluated. HRECs were cultured in EBM-2 media enriched with EGM-2 Single Quots (Lonza) at 37° C. and 5% CO2 and experimentally tested at passage 7. 24 h prior experiment, cells were plated on a 6-well plate at 500,000 cells/mL. Two hours before the experiment, the cells were washed with PBS to remove residual growth media and then incubated with a starving media including EBM-2, 1% GlutaMax+0,2% Normicin. Treatments was conducted using media derived from HEK 293T cells transiently transfected for 24 h with different mini-RELN constructs in the presence of Lipofectamine 2000. […] Total protein levels were quantified via BCA assay. […] We detected pDAB1 (Tyr232; 1:1000, rabbit, #3325 Cell signaling), and Beta actin (1:5000, mouse, #66009-1-Ig, Proteintech. Antibodies were diluted using Intercept® (TBS) Blocking Buffer and incubated overnight at 4C under gentle shaking. Prior secondary antibody incubation, membranes were washes 2 times using TBS-T for 10 minutes. As secondary antibodies we used IR Dye 800n CW Goat-anti-Rabbit (925-32211, Licor) and IR Dye 680 CW Goat-anti-Mouse (925-68070, Licor) both diluted 1:10000 in blocking buffer for 1 h at room temperature under gentle shaking. Membranes were washed three times with TBS-T prior IR detection using Odyssey imager. […]

[1] = tested on: human retinal endothelial cells; experiment: GFP mRNA cargo uptake with CTR peptide in retinal endothelial cells; assay type: cell-based; conditions: 5 μg mRNA mixed with peptide, 24 hours
Experimental: To evaluate this, HMRECs were cultured in a 24 well plate until 80% confluency complete endothelial growth media 2 (EGM-2, Lonza, Switzerland). For the treatments, 5 μg of mRNA were added to all the formulations. We prepared mRNA/peptide conjugates by mixing each amount of peptide ([…]) (SEQ ID NO:59) and mRNA prior to dilution in EGM-2. HMRECs were cultured with treatment media for 24 hours followed by fluorescence measurements in a microplate reader Synergy H1 (Biotek, VT) upon exciting at 482 nm and recording emission at 520 nm.

VLDLr = target: T1, VLDLr (Homo sapiens, UniProt P98155); experiment: ELISA cell-free binding of RELN variants to VLDLr
T1 construct: purchased R&D 8444-VL
Experimental: (§1) Enzyme-linked immunosorbent assay (ELISA) was used to quantify changes in binding of RELN variants (media-derived full-length or CTR-RELN) to either VLDLr or ApoEr2 following an optimized version of a previously published protocol (6). Briefly, ELISA strips (DY008, R&D Systems) were coated with one ng/μL (100 μL/well) of VLDLr (8444-VL, R&D) or ApoEr2 (TP320903, OnGene) receptors diluted in 25 mM Tris HCl, 140 mM NaCl, […], two mM CaCl2), pH 7.4 (TBS-C buffer). After 18 h at four ° C. incubation, plates were blocked one h with three % BSA (22070008-6, Bioworld), 0.05% Tween-20 (Sigma Aldrich) TBS-C buffer. We assessed binding via incubation with 100 μL/well of serial dilutions of recombinant RELN protein (Ser1221-Gln2666, 8546-MR-050, R&D) or RELN variants in TBS-C buffer for one hour at room temperature. For detection, we used goat anti-mouse RELN primary antibody (LS-C793521-100, LS-Bio, 1:2,000, 100 μL/well) as primary antibody for one h at R.T. and (1:10,000; 100 μL/well, donkey anti-goat IgG H&L, HRP, ab6885, Abcam) as secondary antibody for 30 min. at R.T. Between each of the previous steps, plates were washed four times with TBS-C buffer (200 μL/well). Plates were washed three times prior to initiating the colorimetric reaction (DY008, R&D Systems). Stop solution (50 μL/well, DY008, R&D Systems) was added upon five min. incubation and the absorbance of the samples was measured at 450 nm using the Synergy 2 microplate reader (BioTek Instruments). Processing and analysis of the data was done using Gen5 1.11 software and GraphPad Prism, respectively.

Aβ42 = target: T2, Aβ42 (Homo sapiens, UniProt P05067); experiment: Thioflavin T (ThT) Aβ aggregation assay; assay type: biochemical; conditions: Aβ42 55 μM, 10 μM peptide, vs Aβ alone
T2 construct: SensoLyte ThT O-Amyloid (1-42) Aggregation kit
T2 sequence (P05067 672-713 limits assumed): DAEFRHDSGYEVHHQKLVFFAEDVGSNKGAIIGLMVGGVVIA
Experimental: Therefore, the ThT assay can be used to quantify AB aggregation using previously developed methods (40).
We incubated CTR-RELN with Aβ and monitored aggregation using a ThioflavinT fluorescence assay normalized to the maximum ThT emission of Aβ only. We also assayed Aβ in the presence of morin, a known inhibitor (41), as a […]. Long and short WT and H3447R RELN CTR peptides were included to better understand the potential role of the H3447R mutation in amyloid pathology (FIGS. 14 and 15. Negative controls included long and short RELN CTR peptides with neutrally charged AAs (histidines) in place of basic AAs in the alpha- and beta-GAG binding sites.
A Thioflavin T (ThT) assay was also performed using synthetic Reelin peptides to assess the differential effects of these proteins on Aβ42 aggregation in vitro using Thioflavin T (SensoLyte ThT O-Amyloid (1-42) Aggregation kit, catalog no. ΔS-72214). Aβ42 was added to a final concentration of 55 μM in solutions of 10 μM of Reelin peptide variants in a transparent, no-binding 96-well plate. Samples were then mixed with 2 mM Thioflavin T dye and fluorescence was read at excitation wavelength/emission wavelength (Ex/Em)=440/484 nm at intermittent time intervals over 2 h. The plate was kept at 37° C. with 15 s shaking between reads. […] In general, it appears that the RELN Cterm domain is highly unstructured. […] If the mini-RELN includes the C-term domain only without a receptor binding domain then the protection will not involve signaling, but will still involve direct interactions with tau. If the mini-RELN includes the C-term domain and the receptor binding domain, it will have at least two protective mechanisms, namely RELN signaling and direct interactions with tau.

[2] = Heparin-sepharose affinity column chromatography, NaCl step gradient; assay type: binding
Experimental: We tested changes in binding to heparin of RELN variants chromatographically using an optimized version of a protocol previously published by our laboratory (1). Briefly, after equilibration of the heparin column (BioVision 6554-1) at R.T., columns were washed with five volumes of degassed 20 mM TRIS-HCl buffer (pH 7.5). Recombinant C-terminus RELN peptides were produced and purified by Innovagen (Sweden): (WT) […](SEQ ID NO:56), and (H3447R) […](SEQ ID NO:53). One mL of 50 μg/mL peptide (H3447 or WT, and H3447R) was recycled through the column five times and the last flow through collected for further analysis. The column was washed five times with the same buffer and the protein eluted using a 0.05 M step gradient of NaCl in 20 mM Tris-HCl (0-1M, one mL per fraction). To ensure the complete release of the protein, the column was washed with five M NaCl 20 mM Tris-HCl. Three independent experiments were conducted for C-terminus RELN WT and H3447R. All eluted fractions were analyzed spectroscopically by reading the absorbance at 280 nm using Nanodrop 2000 Spectrophotometer. Blank corrected fractions were subsequently analyzed using GraphPad Prism 8.
To assess Reelin-heparin binding affinity, Reelin variants were run on a heparin column with steps of 0.05M in a range of 0.05-1M NaCl over 20 1 mL column volumes in 20 mM Tris HCl, as described in Arboleda et. al 2019 (2). Sample fractions were eluted at an increasing NaCl step size to determine the ionic strength needed to disrupt the binding between Reelin and heparin. Therefore, the stronger the interaction, the higher concentration of salt would be needed to disrupt the bond.

APOER2 = target: T3, APOER2 (Homo sapiens, UniProt Q14114); experiment: ELISA cell-free binding of RELN variants to ApoEr2
T3 construct: purchased OnGene (so in the source)
T3 sequence (Q14114 33-963): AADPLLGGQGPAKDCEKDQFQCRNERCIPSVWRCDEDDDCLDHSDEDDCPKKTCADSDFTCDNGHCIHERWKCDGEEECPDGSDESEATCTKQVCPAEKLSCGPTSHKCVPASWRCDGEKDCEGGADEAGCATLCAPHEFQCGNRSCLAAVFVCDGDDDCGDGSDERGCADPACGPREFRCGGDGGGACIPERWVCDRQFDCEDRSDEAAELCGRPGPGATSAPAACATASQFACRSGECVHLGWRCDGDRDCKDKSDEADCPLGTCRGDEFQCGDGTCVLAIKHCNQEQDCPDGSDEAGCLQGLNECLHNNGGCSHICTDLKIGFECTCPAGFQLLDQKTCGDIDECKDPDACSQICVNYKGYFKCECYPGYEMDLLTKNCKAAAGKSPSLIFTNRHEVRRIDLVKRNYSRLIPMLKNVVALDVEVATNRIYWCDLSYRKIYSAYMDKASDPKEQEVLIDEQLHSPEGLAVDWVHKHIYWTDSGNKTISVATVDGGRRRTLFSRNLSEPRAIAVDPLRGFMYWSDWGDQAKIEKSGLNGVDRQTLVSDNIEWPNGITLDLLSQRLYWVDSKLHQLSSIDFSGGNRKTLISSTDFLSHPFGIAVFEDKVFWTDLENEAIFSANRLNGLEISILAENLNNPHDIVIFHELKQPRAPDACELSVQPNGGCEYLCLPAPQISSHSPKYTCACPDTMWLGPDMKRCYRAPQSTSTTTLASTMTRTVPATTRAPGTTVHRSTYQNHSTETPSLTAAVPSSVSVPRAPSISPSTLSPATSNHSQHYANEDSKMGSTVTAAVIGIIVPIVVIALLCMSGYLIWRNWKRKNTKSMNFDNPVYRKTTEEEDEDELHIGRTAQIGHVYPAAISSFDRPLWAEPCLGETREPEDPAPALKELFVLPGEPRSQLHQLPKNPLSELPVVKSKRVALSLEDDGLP
Experimental: as §1

[3] = Isothermal titration calorimetry (ITC) of CTR-RELN with heparin; assay type: binding; conditions: titrated with 5 μM heparin, vs WT

IL2signalpeptide-6XHistag(SEQ ID NO: 62)-hReelin(AALeu1220-Ile2660) C-term-REELIN H3447R [225SU]
pDAB1 / Dab1 signaling activation (pDAB1 (Tyr232)): efficacy

RKQNYMMNFSRQHGLRHFYNRRRR [WT short]
GFP expression from mRNA cargo [1]: increase in expression

RKQNYMMNFSRQHGLRHFYNRRRRSLRRYP [CTR-RELN WT]
binding to VLDLr (VLDLr): unable to bind directly
Aβ aggregation (ThT fluorescence) (Aβ42; listed as Cterm domain of RELN): reduced amyloid aggregation
Aβ aggregation (ThT fluorescence) (Aβ42; listed as RELN CTR): decreased amyloid aggregation; also recorded: significantly reduced amyloid aggregation; also recorded: reduces Aβ aggregation
NaCl concentration of peak eluted fraction from heparin column ([2]; 0.05 M NaCl step gradient in 20 mM Tris HCl, UV 280 nm): 0.55 M NaCl
binding to and release from heparin column ([2]; affinity chromatography, NaCl gradient): bound to heparin
binding to APOER2 (APOER2): unable to bind directly

RKQNYMMNFSRQHGLRRFYNRRRR [H3447R short]
thermodynamics of heparin interaction [3]: more negative Gibbs free energy
